For orientation: IC50 means the concentration that gives 50% inhibition.

In assay [1] the target is T1, Helicobacter pylori-derived urease (Helicobacter pylori, UniProt P69996).
T1 construct: an urease solution prepared from Helicobacter pylori; endogenous in cells
The experiment in a line: Screening of urease inhibitors (ammonia yield from urea). In kind it is biochemical. The procedure:
Screening of Urease Inhibitors
One hundred (100) μl of 100 mM Bis-Tris buffer (pH 6.5) and 60 μl of an urease solution prepared from Helicobacter pylori were added to 20 μl of a test drug dissolved in 0.1% dimethylformamide solution. The mixture was incubated at room temperature for 30 minutes, and then 20 μl of 100 mM urea was added. The mixture was kept at room temperature for 10 minutes, and then the yielded ammonia in the incubation mixture was measured using a commercial test kit (Ammonia Test Wako®; Wako Pure Chemical). The percent inhibition against the yield of ammonia in the solvent addition group was calculated to obtain the IC50 value.

For assay [2], the system named is Helicobacter pylori (CPY-433 F4). The assay can be described thus: Bacteria eradication effect of urease inhibitor (in vivo) in infected mice. The following applies: male ICR mice, 10 mg/kg p.o. twice daily, lansoprazole 30 mg/kg s.c. once daily before first dose.
Setting [3] is: 4 days for therapy, control 0/5.

T1 sequence (P69996 whole entry, looked up): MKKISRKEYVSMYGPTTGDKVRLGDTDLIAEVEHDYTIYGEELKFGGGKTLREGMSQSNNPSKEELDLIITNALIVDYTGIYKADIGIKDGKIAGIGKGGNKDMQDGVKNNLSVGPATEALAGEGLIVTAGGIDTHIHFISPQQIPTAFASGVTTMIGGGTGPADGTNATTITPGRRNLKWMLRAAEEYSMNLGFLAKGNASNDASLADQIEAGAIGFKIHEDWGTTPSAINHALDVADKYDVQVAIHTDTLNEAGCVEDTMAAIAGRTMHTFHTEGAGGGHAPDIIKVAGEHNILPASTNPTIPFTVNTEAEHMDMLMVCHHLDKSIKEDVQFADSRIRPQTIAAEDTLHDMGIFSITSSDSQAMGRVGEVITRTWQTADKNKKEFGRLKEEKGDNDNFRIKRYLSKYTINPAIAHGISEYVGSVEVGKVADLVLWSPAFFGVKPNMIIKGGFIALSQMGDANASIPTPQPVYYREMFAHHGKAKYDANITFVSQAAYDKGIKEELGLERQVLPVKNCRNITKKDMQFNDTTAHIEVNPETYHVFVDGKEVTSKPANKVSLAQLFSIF

In assay [1], `NP(N)(=O)NC(=O)c1ccc(Cl)s1` [Example 5, N-(Diaminophosphinyl)-5-chloro-2-thiophenecarboxamide] registered a concentration for half-maximal inhibition (IC50) of 3 nM. Further, the “Eradication Rate” value in assay [2] (setting [3]) is on record as 3/5.

`NP(N)(=O)NC(=O)c1ccsc1` [Example 2, N-(Diaminophosphinyl)-3-thiophenecarboxamide] came in with a half-inhibitory concentration (IC50) in assay [1] of 16 nM. The “Eradication Rate” value in assay [2] (setting [3]) is listed as 2/5.

Consider `NP(N)(=O)NC(=O)c1ccc(Br)cc1` [Reference Example 22, N-(Diaminophosphinyl)-4-bromobenzamide], for which 9.3 nM corresponded to half-maximal inhibition in assay [1] (IC50). Also, the “Eradication Rate” value in assay [2] (setting [3]) is given as 1/5.

The compound `Cc1occc1C(=O)NP(N)(N)=O` [Example 40, N-(Diaminophosphinyl)-2-methyl-3-furancarboxamide] came in with an IC50 in assay [1] of 7.9 nM. Also, the “Eradication Rate” value in assay [2] (2 days for therapy) is listed as 1/5.

In turn, `NP(N)(=O)NC(=O)c1cc(Br)cs1` [Example 8, N-(Diaminophosphinyl)-4-bromo-thiophenecarboxamide] registered a concentration for half-maximal inhibition (IC50) in assay [1] of 4.3 nM.

Take `NP(N)(=O)NC(=O)c1ccc(Cl)cc1` [compound 7, N-(Diaminophosphinyl)-4-chlorobenzamide]: the IC50 in assay [1] amounted to 6.9 nM.

As to `NP(N)(=O)NC(=O)C=Cc1ccc(F)cc1F` [compound 34, N-(Diaminophosphinyl)-2,4-difluorocinnamamide], the IC50 in assay [1] was determined as 22 nM.

Compound `NP(N)(=O)NC(=O)c1cc2ccccc2o1` [Example 67, N-(Diaminophosphinyl)-2-benzofurancarboxamide] returned a half-maximal inhibitory concentration (IC50) in assay [1] of 6.1 nM.

In assay [1], `NP(N)(=O)NC(=O)c1ccc(Br)s1` [Example 6, N-(Diaminophosphinyl)-5-bromo-2-thiophenecarboxamide] displayed a concentration for half-maximal inhibition (IC50) of 3.5 nM.

For the compound `NP(N)(=O)NC(=O)c1ccc2ccccc2c1` [compound 28, N-(Diaminophosphinyl)-2-naphthalenecarboxamide], 35 nM corresponded to half-maximal inhibition in assay [1] (IC50).

`NP(N)(=O)NC(=O)c1ccc(F)cc1F` [Reference Example 10, N-(Diaminophosphinyl)-2,4-difluorobenzamide]: half-maximal inhibition in assay [1] (IC50) was put at 7.8 nM.

`COc1ccc(C(=O)NP(N)(N)=O)cc1` [Reference Example 12, N-(diaminophosphinyl)-4-methoxybenzamide] displayed an IC50 in assay [1] of 44 nM.

`NP(N)(=O)NC(=O)Cc1cccs1` [Example 80, N-(Diaminophosphinyl)-2-thienylacetamide] returned an IC50 in assay [1] of 4.4 nM.

Take `NP(N)(=O)NC(=O)COc1ccccc1Cl` [Example 59, N-(Diaminophosphinyl)-2-chlorophenoxyacetamide]: the IC50 in assay [1] was 5.4 nM.

For the compound `NP(N)(=O)NC(=O)c1ccccc1F` [Reference Example 16, N-(Diaminophosphinyl)-2-fluorobenzamide], the IC50 in assay [1] stood at 2.7 nM.

The compound `NP(N)(=O)NC(=O)c1ccccc1[N+](=O)[O-]` [compound 18, N-(Diaminophosphinyl)-2-nitrobenzamide] had a concentration for half-maximal inhibition (IC50) in assay [1] of 5.1 nM.

For the compound `NP(N)(=O)NC(=O)c1ccc(C(F)F)o1` [Example 47, N-(Diaminophosphinyl)-5-difluoromethyl-2-furancarboxamide], the 50% inhibitory concentration (IC50) in assay [1] worked out at 1.9 nM.

In assay [1], `NP(N)(=O)NC(=O)c1ccsc1C(F)F` [Example 20, N-(Diaminophosphinyl)-2-difluoromethyl-3-thiophenecarboxamide] came in with a 50% inhibitory concentration (IC50) of 2.5 nM.

In assay [1], `NP(N)(=O)NC(=O)COc1ccc([N+](=O)[O-])cc1` [Example 52, N-(Diaminophosphinyl)-4-nitrophenoxyacetamide] came in with an IC50 of 12 nM.

In the case of `NP(N)(=O)NC(=O)c1cccc(Cl)c1` [compound 27, N-(Diaminophosphinyl)-3-chlorobenzamide], the IC50 in assay [1] came to 3.9 nM.

As for `Cc1cc(C(=O)NP(N)(N)=O)c(C)o1` [Example 49], in assay [1], the half-inhibitory concentration (IC50) came out at 27 nM.

In assay [1], `Cc1cc(C(=O)NP(N)(N)=O)c(C(F)(F)F)o1` [Example 48, N-(Diaminophosphinyl)-2-trifluoromethyl-5-methyl-3-furancarboxamide] yielded a half-maximal inhibitory concentration (IC50) of 8.3 nM.

`NP(N)(=O)NC(=O)Cc1ccccc1` [Reference Example 6, N-(Diaminophosphinyl)-phenylacetamide]: in assay [1], the concentration for half-maximal inhibition (IC50) was determined as 15 nM.

As for `Cc1sc(C(=O)NP(N)(N)=O)cc1Cl` [Example 34, N-(Diaminophosphinyl)-4-chloro-5-methyl-2-thiophenecarboxamide], it took 12 nM to reach half-maximal inhibition in assay [1] (IC50).

The compound `Nc1ccc(OCC(=O)NP(N)(N)=O)cc1` [compound 44, N-(Diaminophosphinyl)-4-aminophenoxyacetamide] had a half-inhibitory concentration (IC50) in assay [1] of 11 nM.

In turn, `NP(N)(=O)NC(=O)c1cccs1` [Example 1, N-(Diaminophosphinyl)-2-thiophenecarboxamide] returned an IC50 in assay [1] of 1.2 nM.

Regarding `Cc1oc(Cl)cc1C(=O)NP(N)(N)=O` [Example 50, N-(Diaminophosphinyl)-5-chloro-2-methyl-3-furancarboxamide], inhibition in assay [1] was half-maximal at 7.5 nM (IC50).

Take `NP(N)(=O)NC(=O)C=Cc1cccc(F)c1` [compound 35, N-(Diaminophosphinyl)-3-fluorocinnamamide]: the half-maximal inhibitory concentration (IC50) in assay [1] was determined as 17 nM.

On to `N#Cc1ccc(CCC(=O)NP(N)(N)=O)cc1` [compound 40, N-(Diaminophosphinyl)-3-(4-cyanophenyl)propionamide], for which the IC50 in assay [1] came to 18 nM.

`NP(N)(=O)NC(=O)c1ccc([N+](=O)[O-])cc1` [Reference Example 3, N-(Diaminophosphinyl)-4-nitrobenzamide] returned a 50% inhibitory concentration (IC50) in assay [1] of 6.6 nM.

Take `Cc1ccc2c(Cl)c(C(=O)NP(N)(N)=O)sc2c1` [Example 71, N-(Diaminophosphinyl)-3-chloro-6-methylbenzothiophenecarboxamide]: the midpoint of inhibition in assay [1], the IC50, lay at 1.9 nM.

`NP(N)(=O)NC(=O)CSc1ccccc1` [Example 61, N-(Diaminophosphinyl)-phenylthioacetamide] registered a concentration for half-maximal inhibition (IC50) in assay [1] of 2.8 nM.

Turning to `NP(N)(=O)NC(=O)CCc1cccc(F)c1` [compound 42, N-(Diaminophosphinyl)-3-(3-fluorophenyl) propionamide], the IC50 in assay [1] was found to be 22 nM.

In turn, `COc1ccc(C(=O)NP(N)(N)=O)s1` [Example 22, N-(Diaminophosphinyl)-5-methoxy-2-thiophenecarboxamide] returned an IC50 in assay [1] of 12 nM.

Consider `N#Cc1ccc(OCC(=O)NP(N)(N)=O)cc1` [Example 57, N-(Diaminophosphinyl)-4-cyanophenoxyacetamide], for which the 50% inhibitory concentration (IC50) in assay [1] was 7.5 nM.

Take `NP(N)(=O)NC(=O)c1ccc(Cl)o1` [Example 42, N-(Diaminophosphinyl)-5-chloro-2-furancarboxamide]: in assay [1], the IC50 was 2.3 nM.

In assay [1], `Cc1c(C(=O)NP(N)(N)=O)csc1Cl` [Example 87, N-(Diaminophosphinyl)-5-chloro-4-methyl-3-thiophenecarboxamide] came in with a concentration for half-maximal inhibition (IC50) of 2.5 nM.

With `NP(N)(=O)NC(=O)Cn1cnc2ccccc21` [Example 83, N-(Diaminophosphinyl)-1-benzimidazolylacetamide], the 50% inhibitory concentration (IC50) in assay [1] was found to be 7 nM.

In turn, `Cc1sc(Cl)cc1C(=O)NP(N)(N)=O` [Example 33, N-(Diaminophosphinyl)-5-chloro-2-methyl-3-thiophenecarboxamide] registered a half-inhibitory concentration (IC50) in assay [1] of 1.9 nM.

In assay [1], `CCc1ccsc1C(=O)NP(N)(N)=O` [Example 27, N-(Diaminophosphinyl)-3-ethyl-2-thiophenecarboxamide] came in with an IC50 of 4.1 nM.

Turning to `NP(N)(=O)NC(=O)c1sccc1Br` [Example 16, N-(Diaminophosphinyl)-3-bromo-2-thiophenecarboxamide], 0.8 nM corresponded to half-maximal inhibition in assay [1] (IC50).

For the compound `N#Cc1ccc(C=CC(=O)NP(N)(N)=O)cc1` [compound 32, N-(Diaminophosphinyl)-4-cyanocinnamamide], the concentration for half-maximal inhibition (IC50) in assay [1] was 14 nM.

With `NP(N)(=O)NC(=O)C=Cc1ccccc1` [Reference Example 4, N-(Diaminophosphinyl)cinnamamide], half-maximal inhibition in assay [1] (IC50) was put at 10 nM.

Take `NP(N)(=O)NC(=O)CCc1ccc(F)cc1` [Reference Example 38, N-(Diaminophosphinyl)-3-(4-fluorophenyl)propionamide]: the IC50 in assay [1] came to 9.7 nM.

`NP(N)(=O)NC(=O)c1cc(Br)c(Br)s1` [Example 7, N-(Diaminophosphinyl)-4,5-dibromo-2-thiophenecarboxamide] came in with an IC50 in assay [1] of 4.3 nM.

In assay [1], `NP(N)(=O)NC(=O)C=Cc1cc(Br)cs1` [Example 77, N-(Diaminophosphinyl)-3-(4-bromo-2-thienyl)propenamide] displayed an IC50 of 8.1 nM.

For `NP(N)(=O)NC(=O)CCc1ccccc1` [Reference Example 37, N-(Diaminophosphinyl)-3-phenylpropionamide], in assay [1], half-maximal inhibition (IC50) required 17 nM.

Compound `NP(N)(=O)NC(=O)c1ccccc1C(F)(F)F` [compound 24, N-(Diaminophosphinyl)-2-trifluoromethylbenzamide] came in with an IC50 in assay [1] of 8 nM.

As for `NP(N)(=O)NC(=O)CSc1nc2ccccc2s1` [Example 64, N-(Diaminophosphinyl)-2-benzothiazolylthioacetamide], the IC50 in assay [1] is 2.9 nM.

On to `NP(N)(=O)NC(=O)C=Cc1ccccc1[N+](=O)[O-]` [compound 33, N-(Diaminophosphinyl)-2-nitrocinnamamide], for which the IC50 in assay [1] came to 8.3 nM.

For `Nc1ccccc1CCC(=O)NP(N)(N)=O` [compound 43, N-(Diaminophosphinyl)-3-(2-aminophenyl) propionamide], in assay [1], half-maximal inhibition (IC50) was put at 71 nM.

In assay [1], `NP(N)(=O)NC(=O)Cc1ccsc1` [Example 81, N-(Diaminophosphinyl)-3-thienylacetamide] came in with an IC50 of 7.9 nM.

In turn, `NP(N)(=O)NC(=O)C=Cc1ccc(F)cc1` [compound 20, N-(Diaminophosphinyl)-4-fluorocinnamamide] yielded a half-maximal inhibitory concentration (IC50) in assay [1] of 6.5 nM.

Values taken from US5840917A, “Phosphorylamides, their preparation and use” (Takeda Chemical Industries, Ltd., priority 1995, dated 1998).
